Experimental findings from article PMC3969223, “Characterization of WZ4003 and HTH-01-015 as selective inhibitors of the LKB1-tumour-suppressor-activated NUAK kinases” (Biochemical Journal, 2013) are described below.

Molecules are shown by their SMILES.

Assay [1] concerns ACC Ser79 phosphorylation. In words: ACC Ser79 phosphorylation on EDTA-induced detachment, HEK-293. To be noted: HEK-293, 16 h. The format is cell-based, human. As for the experimental part:
HEK (human embryonic kidney)-293 and U2OS cells were cultured in DMEM (Dulbecco's modified Eagle's medium) supplemented with 10% FBS, 2 mM glutamine and 1×antibacterial/antimycotic solution. NUAK1^+/+ and NUAK1^−/− MEFs were cultured in DMEM supplemented with 10% (v/v) FBS and 2 mM glutamine, 1×antibacterial/antimycotic solution, 1% (v/v) non-essential amino acids and 1% (v/v) sodium pyruvate. HEK-293 Flp/In T-Rex cell lines were cultured in DMEM supplemented with 10% (v/v) FBS and 2 mM glutamine, 1×antibacterial/antimycotic solution, 100 μg/ml hygromycin and 15 μg/ml blasticidin. Supplementing the culture medium with 0.1 μg/ml doxycycline for 16–24 h induced protein expression in the HEK-293 Flp/In T-Rex cells. Cell counting was carried out using Invitrogen Countess following the manufacturer's protocol. A cell-detachment assay was carried out on HEK-293 cells using PBS-EDTA-based cell dissociation buffer as described previously. An inhibitor dose-dependence assay was carried out by treating the cells with various concentrations of the inhibitors as indicated in the Figure legends. The inhibitors were dissolved in DMSO and the total concentration of DMSO in the culture media never exceeded 1%. Transient transfections of HEK-293 cells were carried out using PEI [24]. Stable transfections were carried out in HEK-293 Flp/In T-Rex cells (Invitrogen) following the manufacturer's protocol. […]

For assay [2], the target named is ASK1 (Homo sapiens, UniProt Q99683). In words: Kinase profiling. The class given is biochemical. To be noted: 0.1 or 1 μM inhibitor; mean of triplicate. As for the experimental part:
(§1) Kinase inhibitor specificity profiling assays were carried out at The International Centre for Protein Kinase Profiling (http://www.kinase-screen.mrc.ac.uk/) against a panel of 140 protein kinases as described previously. Results are presented as a percentage of kinase activity in DMSO control reactions. Protein kinases were assayed in vitro with 0.1 or 1 μM of the inhibitors and the results are presented as an average of triplicate reactions±S.D. or in the form of comparative histograms.

Assay [3] concerns the target BTK (Homo sapiens, UniProt Q06187). The assay is described as follows: Kinase profiling. The format is biochemical. To be noted: 0.1 or 1 μM inhibitor; mean of triplicate. As for the experimental part:
as §1

For assay [4], the target named is CK2 (Homo sapiens, UniProt P68400). The assay is described as follows: Kinase profiling. The class given is biochemical. To be noted: 0.1 or 1 μM inhibitor; mean of triplicate. As for the experimental part:
as §1

The target of assay [5] is EPH-B1 (Homo sapiens, UniProt P54762). The assay is described as follows: Kinase profiling. The class given is biochemical. To be noted: 0.1 or 1 μM inhibitor; mean of triplicate. As for the experimental part:
as §1

In assay [6] the target is EPH-B2 (Homo sapiens, UniProt P29323). The assay is described as follows: Kinase profiling. The class given is biochemical. To be noted: 0.1 or 1 μM inhibitor; mean of triplicate. As for the experimental part: as §1
The target in assay [7] is HIPK1 (Homo sapiens, UniProt Q86Z02). The assay is described as follows: Kinase profiling. The format is biochemical. To be noted: 0.1 or 1 μM inhibitor; mean of triplicate. As for the experimental part:
as §1

In assay [8] the target is IGF-1R (Homo sapiens, UniProt P08069). The assay is described as follows: Kinase profiling. The class given is biochemical. To be noted: 0.1 or 1 μM inhibitor; mean of triplicate. As for the experimental part:
as §1

The target in assay [9] is IKKε (Homo sapiens, UniProt Q14164). In words: Kinase profiling. The class given is biochemical. To be noted: 0.1 or 1 μM inhibitor; mean of triplicate. As for the experimental part:
as §1

Assay [10] concerns the target MAP4K3 (Homo sapiens, UniProt Q8IVH8). In words: Kinase profiling. The format is biochemical. To be noted: 0.1 or 1 μM inhibitor; mean of triplicate. As for the experimental part: as §1
In assay [11] the target is MARK3 (Homo sapiens, UniProt P27448). In words: Kinase profiling. The format is biochemical. As for the experimental part: as §1
In assay [12] the target is MKK1 (Homo sapiens, UniProt Q02750). In words: Kinase profiling. The format is biochemical. To be noted: 0.1 or 1 μM inhibitor; mean of triplicate. As for the experimental part:
as §1

Assay [13] deals with MKK6 (Homo sapiens, UniProt P52564). The assay is described as follows: Kinase profiling. The format is biochemical. To be noted: 0.1 or 1 μM inhibitor; mean of triplicate. As for the experimental part: as §1
The target in assay [14] is MLK1 (Homo sapiens, UniProt P80192). In words: Kinase profiling. The class given is biochemical. To be noted: 0.1 or 1 μM inhibitor; mean of triplicate. As for the experimental part:
as §1

Assay [15] has as its target MPSK1 (Homo sapiens, UniProt O75716). The assay is described as follows: Kinase profiling. The class given is biochemical. To be noted: 0.1 or 1 μM inhibitor; mean of triplicate. As for the experimental part: as §1
Assay [16] addresses MST4 (Homo sapiens, UniProt Q9P289). The assay is described as follows: Kinase profiling. To be noted: 0.1 or 1 μM inhibitor; mean of triplicate. The class given is biochemical. As for the experimental part: as §1
In assay [17] the target is NEK2α (Homo sapiens, UniProt P51955). In words: Kinase profiling. The class given is biochemical. To be noted: 0.1 or 1 μM inhibitor; mean of triplicate. As for the experimental part: as §1
Assay [18] deals with PAK2 (Homo sapiens, UniProt Q13177). In words: Kinase profiling. The format is biochemical. To be noted: 0.1 or 1 μM inhibitor; mean of triplicate. As for the experimental part:
as §1

The target of assay [19] is PRAK (Homo sapiens, UniProt Q8IW41). In words: Kinase profiling. To be noted: 0.1 or 1 μM inhibitor; mean of triplicate. The class given is biochemical. As for the experimental part:
as §1

Assay [20] has as its target ROCK 2 (Homo sapiens, UniProt O75116). In words: Kinase profiling. The class given is biochemical. To be noted: 0.1 or 1 μM inhibitor; mean of triplicate. As for the experimental part:
as §1

Assay [21] deals with TAO1 (Homo sapiens, UniProt Q7L7X3). The assay is described as follows: Kinase profiling. The format is biochemical. To be noted: 0.1 or 1 μM inhibitor; mean of triplicate. As for the experimental part:
as §1

MPSK1, sequence (O75716 whole entry): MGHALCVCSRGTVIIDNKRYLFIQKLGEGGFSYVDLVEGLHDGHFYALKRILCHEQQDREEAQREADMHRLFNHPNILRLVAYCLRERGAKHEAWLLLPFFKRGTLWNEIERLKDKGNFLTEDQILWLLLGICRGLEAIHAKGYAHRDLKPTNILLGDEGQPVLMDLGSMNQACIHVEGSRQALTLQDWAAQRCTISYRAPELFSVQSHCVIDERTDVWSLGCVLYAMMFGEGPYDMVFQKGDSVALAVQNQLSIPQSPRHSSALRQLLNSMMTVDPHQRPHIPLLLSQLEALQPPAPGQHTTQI
CK2, sequence (P68400 whole entry): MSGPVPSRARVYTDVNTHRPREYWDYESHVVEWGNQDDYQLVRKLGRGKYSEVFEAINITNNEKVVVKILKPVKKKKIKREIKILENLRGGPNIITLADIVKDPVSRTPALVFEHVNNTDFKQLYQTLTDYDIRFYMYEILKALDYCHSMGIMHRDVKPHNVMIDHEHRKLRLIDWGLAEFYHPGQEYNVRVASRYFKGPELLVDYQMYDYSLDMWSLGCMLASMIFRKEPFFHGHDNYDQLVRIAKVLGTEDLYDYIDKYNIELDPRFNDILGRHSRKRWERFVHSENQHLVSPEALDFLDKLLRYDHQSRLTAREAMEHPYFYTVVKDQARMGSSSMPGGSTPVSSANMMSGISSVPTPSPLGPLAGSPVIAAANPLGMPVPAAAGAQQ
MKK1, sequence (Q02750 whole entry): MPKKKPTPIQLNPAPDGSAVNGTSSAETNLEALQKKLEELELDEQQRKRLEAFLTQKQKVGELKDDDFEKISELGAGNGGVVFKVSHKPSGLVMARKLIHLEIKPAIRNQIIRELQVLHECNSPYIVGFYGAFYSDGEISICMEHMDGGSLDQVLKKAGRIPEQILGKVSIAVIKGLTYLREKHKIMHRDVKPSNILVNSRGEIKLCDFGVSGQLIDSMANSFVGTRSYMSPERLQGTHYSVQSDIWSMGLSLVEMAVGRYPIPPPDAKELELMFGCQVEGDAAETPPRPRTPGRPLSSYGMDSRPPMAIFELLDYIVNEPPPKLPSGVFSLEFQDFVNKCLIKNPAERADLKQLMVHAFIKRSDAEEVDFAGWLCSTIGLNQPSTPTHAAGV
IKKε, sequence (Q14164 whole entry): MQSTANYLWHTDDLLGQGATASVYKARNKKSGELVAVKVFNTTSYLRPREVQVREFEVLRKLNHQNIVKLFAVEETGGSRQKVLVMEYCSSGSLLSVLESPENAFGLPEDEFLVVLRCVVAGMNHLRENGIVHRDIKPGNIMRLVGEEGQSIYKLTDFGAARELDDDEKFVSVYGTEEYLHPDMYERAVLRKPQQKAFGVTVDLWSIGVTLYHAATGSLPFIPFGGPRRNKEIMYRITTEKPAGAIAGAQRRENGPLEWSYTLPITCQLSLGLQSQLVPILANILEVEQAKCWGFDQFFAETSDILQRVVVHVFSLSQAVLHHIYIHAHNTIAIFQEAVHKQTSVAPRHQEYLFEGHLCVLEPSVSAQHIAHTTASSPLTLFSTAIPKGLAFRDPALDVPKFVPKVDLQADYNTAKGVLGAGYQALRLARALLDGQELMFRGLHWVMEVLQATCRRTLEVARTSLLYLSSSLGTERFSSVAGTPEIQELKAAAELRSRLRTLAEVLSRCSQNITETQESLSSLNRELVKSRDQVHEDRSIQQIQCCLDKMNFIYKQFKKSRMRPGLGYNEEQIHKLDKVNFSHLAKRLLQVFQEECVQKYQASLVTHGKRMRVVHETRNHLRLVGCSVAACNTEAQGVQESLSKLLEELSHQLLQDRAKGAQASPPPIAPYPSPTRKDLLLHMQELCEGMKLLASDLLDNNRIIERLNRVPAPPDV
ROCK 2, sequence (O75116 whole entry): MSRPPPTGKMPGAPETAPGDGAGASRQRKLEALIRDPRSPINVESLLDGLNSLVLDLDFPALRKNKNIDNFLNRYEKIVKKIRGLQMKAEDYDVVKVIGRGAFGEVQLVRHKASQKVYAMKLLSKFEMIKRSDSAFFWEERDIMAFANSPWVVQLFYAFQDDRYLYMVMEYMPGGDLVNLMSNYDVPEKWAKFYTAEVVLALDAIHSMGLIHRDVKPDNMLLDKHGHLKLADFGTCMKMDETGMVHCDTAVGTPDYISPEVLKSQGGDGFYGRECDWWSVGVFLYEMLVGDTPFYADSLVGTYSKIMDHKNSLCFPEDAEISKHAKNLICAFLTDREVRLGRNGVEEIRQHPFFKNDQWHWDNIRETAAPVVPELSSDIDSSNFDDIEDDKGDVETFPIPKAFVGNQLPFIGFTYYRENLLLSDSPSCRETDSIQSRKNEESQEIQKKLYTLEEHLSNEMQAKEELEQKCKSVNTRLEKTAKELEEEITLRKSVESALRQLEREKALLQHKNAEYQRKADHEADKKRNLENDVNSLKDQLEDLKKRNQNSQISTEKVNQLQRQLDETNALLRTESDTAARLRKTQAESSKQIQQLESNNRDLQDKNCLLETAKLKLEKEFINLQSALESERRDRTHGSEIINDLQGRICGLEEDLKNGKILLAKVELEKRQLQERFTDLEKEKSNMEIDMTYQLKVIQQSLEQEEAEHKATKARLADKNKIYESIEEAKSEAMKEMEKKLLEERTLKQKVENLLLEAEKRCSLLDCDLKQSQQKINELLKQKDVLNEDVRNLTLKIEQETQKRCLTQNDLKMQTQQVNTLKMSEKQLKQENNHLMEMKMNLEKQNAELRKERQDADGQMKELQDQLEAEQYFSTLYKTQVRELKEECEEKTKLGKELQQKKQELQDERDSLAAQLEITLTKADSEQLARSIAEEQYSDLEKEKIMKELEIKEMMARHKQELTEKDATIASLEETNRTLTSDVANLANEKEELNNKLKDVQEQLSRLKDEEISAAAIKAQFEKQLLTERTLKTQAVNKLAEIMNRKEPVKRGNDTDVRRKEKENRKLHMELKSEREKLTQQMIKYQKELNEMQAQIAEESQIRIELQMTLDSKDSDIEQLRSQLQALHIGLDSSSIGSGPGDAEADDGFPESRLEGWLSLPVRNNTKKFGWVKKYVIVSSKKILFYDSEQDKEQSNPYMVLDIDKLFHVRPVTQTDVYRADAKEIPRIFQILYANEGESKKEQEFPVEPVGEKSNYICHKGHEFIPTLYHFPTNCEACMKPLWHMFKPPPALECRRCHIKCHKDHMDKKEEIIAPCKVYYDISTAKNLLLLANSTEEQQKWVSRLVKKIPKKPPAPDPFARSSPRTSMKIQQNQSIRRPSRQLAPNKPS
MLK1, sequence (P80192 whole entry): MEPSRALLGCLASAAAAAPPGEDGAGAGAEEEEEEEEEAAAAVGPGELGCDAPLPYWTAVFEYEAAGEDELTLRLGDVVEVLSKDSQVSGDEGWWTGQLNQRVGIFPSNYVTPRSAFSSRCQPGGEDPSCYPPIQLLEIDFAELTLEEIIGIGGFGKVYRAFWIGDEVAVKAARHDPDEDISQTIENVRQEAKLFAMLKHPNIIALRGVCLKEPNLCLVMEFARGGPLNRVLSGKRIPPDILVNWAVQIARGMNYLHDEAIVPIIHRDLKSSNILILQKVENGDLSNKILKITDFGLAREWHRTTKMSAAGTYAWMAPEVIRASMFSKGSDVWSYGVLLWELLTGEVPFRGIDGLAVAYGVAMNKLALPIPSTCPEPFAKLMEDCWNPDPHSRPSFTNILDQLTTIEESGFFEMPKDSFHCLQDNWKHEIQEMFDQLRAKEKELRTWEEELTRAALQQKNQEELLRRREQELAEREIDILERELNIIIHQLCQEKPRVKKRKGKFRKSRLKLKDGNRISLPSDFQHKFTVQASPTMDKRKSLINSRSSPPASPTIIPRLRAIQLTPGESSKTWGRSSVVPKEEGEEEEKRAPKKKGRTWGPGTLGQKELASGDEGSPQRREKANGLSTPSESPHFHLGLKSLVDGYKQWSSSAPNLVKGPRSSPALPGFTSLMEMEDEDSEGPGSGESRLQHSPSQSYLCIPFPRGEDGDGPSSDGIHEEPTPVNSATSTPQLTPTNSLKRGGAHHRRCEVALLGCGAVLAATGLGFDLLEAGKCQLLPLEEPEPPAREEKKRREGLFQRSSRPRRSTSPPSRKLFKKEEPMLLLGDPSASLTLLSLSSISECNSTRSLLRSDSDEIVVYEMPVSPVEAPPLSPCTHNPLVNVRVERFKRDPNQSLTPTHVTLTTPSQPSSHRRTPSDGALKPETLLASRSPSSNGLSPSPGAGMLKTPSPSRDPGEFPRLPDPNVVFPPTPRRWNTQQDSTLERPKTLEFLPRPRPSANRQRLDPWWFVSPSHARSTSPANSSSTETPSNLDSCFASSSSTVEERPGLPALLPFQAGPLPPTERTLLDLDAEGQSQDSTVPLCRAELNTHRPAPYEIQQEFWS
MKK6, sequence (P52564 whole entry): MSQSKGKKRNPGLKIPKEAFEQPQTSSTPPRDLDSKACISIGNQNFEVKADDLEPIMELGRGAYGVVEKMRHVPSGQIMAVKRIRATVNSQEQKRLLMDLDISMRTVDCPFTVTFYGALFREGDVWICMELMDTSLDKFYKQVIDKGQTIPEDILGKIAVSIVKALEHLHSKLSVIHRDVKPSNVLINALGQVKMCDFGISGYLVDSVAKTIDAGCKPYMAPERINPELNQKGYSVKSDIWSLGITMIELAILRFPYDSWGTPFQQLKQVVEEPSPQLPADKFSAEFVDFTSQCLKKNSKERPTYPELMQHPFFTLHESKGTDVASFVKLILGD
MST4, sequence (Q9P289 whole entry): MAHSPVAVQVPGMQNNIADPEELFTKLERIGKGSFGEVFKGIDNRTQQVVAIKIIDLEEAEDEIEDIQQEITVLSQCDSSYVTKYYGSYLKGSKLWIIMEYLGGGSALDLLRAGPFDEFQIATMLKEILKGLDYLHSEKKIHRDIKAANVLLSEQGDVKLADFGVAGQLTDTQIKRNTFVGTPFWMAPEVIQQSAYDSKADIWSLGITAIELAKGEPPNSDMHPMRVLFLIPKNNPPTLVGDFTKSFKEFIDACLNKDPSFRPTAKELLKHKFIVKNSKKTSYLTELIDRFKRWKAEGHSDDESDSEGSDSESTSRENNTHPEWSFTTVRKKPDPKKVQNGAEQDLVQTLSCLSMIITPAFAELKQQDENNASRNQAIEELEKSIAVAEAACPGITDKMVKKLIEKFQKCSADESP

For the compound `Cc1nc(Nc2cnn(C3CCNCC3)c2)nc2c1N(C)C(=O)c1cc3ccccc3cc1N2C` [HTH-01-015], the “Inhibition of ACC Ser79 phosphorylation induced by cell detachment (in words)” value in [1] is listed as “neither compound inhibited”. In assay [2], the “ASK1 activity, percentage of DMSO control” value was determined as 105 percentage. In addition, in assay [3], the “BTK activity, percentage of DMSO control” value was 109 percentage. The “CK2 activity, percentage of DMSO control” value in [4] turned out to be 120 percentage. In addition, the “EPH-B1 activity, percentage of DMSO control” value in assay [5] turned out to be 97 percentage. For the same compound, in assay [6], the “EPH-B2 activity, percentage of DMSO control” value is listed as 97 percentage. The “HIPK1 activity, percentage of DMSO control” value in [7] was found to be 107 percentage. In addition, in assay [8], the “IGF-1R activity, percentage of DMSO control” value is listed as 133 percentage. In addition, the “IKKε activity, percentage of DMSO control” value in [9] is given as 85 percentage. Further, the “MAP4K3 activity, percentage of DMSO control” value in [10] is 127 percentage. Besides, the “MARK3 activity, percentage of DMSO control” value in assay [11] (0.1 or 1 μM inhibitor, mean of triplicate) came out at 102 percentage. Besides, in assay [12], the “MKK1 activity, percentage of DMSO control” value was found to be 113 percentage. Besides, the “MKK6 activity, percentage of DMSO control” value in assay [13] is given as 87 percentage. For the same compound, the “MLK1 activity, percentage of DMSO control” value in assay [14] came out at 102 percentage. Moreover, the “MPSK1 activity, percentage of DMSO control” value in assay [15] was determined as 103 percentage. The “MST4 activity, percentage of DMSO control” value in [16] came to 119 percentage. Moreover, in assay [17], the “NEK2α activity, percentage of DMSO control” value is reported as 103 percentage. The “PAK2 activity, percentage of DMSO control” value in assay [18] is recorded as 125 percentage. The “PRAK activity, percentage of DMSO control” value in [19] is reported as 105 percentage. The “ROCK 2 activity, percentage of DMSO control” value in assay [20] is recorded as 110 percentage. Also, the “TAO1 activity, percentage of DMSO control” value in assay [21] stood at 123 percentage.
Turning to `CCC(=O)Nc1cccc(Oc2nc(Nc3ccc(N4CCN(C)CC4)cc3OC)ncc2Cl)c1` [WZ4003], in assay [1], the “Inhibition of ACC Ser79 phosphorylation induced by cell detachment (in words)” value is given as “neither compound inhibited”. Moreover, the “ASK1 activity, percentage of DMSO control” value in [2] amounted to 107 percentage. Further, the “BTK activity, percentage of DMSO control” value in [3] is reported as 114 percentage. For the same compound, in assay [4], the “CK2 activity, percentage of DMSO control” value is reported as 76 percentage. The “EPH-B1 activity, percentage of DMSO control” value in [5] was found to be 98 percentage. For the same compound, the “EPH-B2 activity, percentage of DMSO control” value in assay [6] was found to be 107 percentage. Also, the “HIPK1 activity, percentage of DMSO control” value in assay [7] was 103 percentage. In addition, the “IGF-1R activity, percentage of DMSO control” value in assay [8] is 33 percentage. The “IKKε activity, percentage of DMSO control” value in assay [9] came to 104 percentage. Moreover, the “MAP4K3 activity, percentage of DMSO control” value in assay [10] came to 111 percentage. The “MKK1 activity, percentage of DMSO control” value in assay [12] is on record as 98 percentage. For the same compound, in assay [13], the “MKK6 activity, percentage of DMSO control” value worked out at 101 percentage. In addition, the “MLK1 activity, percentage of DMSO control” value in assay [14] came to 69 percentage. Also, the “MPSK1 activity, percentage of DMSO control” value in assay [15] amounted to 107 percentage. Besides, the “MST4 activity, percentage of DMSO control” value in assay [16] is reported as 101 percentage. The “NEK2α activity, percentage of DMSO control” value in assay [17] stood at 110 percentage. In addition, in assay [18], the “PAK2 activity, percentage of DMSO control” value is 92 percentage. In addition, the “PRAK activity, percentage of DMSO control” value in assay [19] came to 94 percentage. Further, the “ROCK 2 activity, percentage of DMSO control” value in assay [20] turned out to be 80 percentage. In assay [21], the “TAO1 activity, percentage of DMSO control” value is 101 percentage.
Turning to `CN1C(=O)c2ccccc2N(C)c2nc(Nc3cnn(C4CCNCC4)c3)ncc21` [XMD-17-51], the “Inhibition of MARK3 in profiling (in words)” value in assay [11] (1 μM) is given as “inhibited”.
